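The compound was tested at five concentrations on cells cultured in 96-well plates, with a 48-hour exposure period. GI50 is the concentration that inhibits growth by half.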 The source made the active and inactive calls. Cut-off read from the data, not from the text of the source: active = GI50 up to about 1.1 µM and inactive = higher.
How the values were obtained:
Assay in all cases: NCI-60 cell line screen, 48 h
A498 = test system: A498
A549 = test system: A549
HCT-116 = test system: HCT-116
HCT-15 = test system: HCT-15
HOP-62 = test system: HOP-62
Hs-578T = test system: Hs-578T
K562 = test system: K562
KM12 = test system: KM12
M14 = test system: M14
MCF7 = test system: MCF7
MDA-N = test system: MDA-N
NCI-H460 = test system: NCI-H460
NCI/ADR-RES = test system: NCI/ADR-RES
OVCAR-8 = test system: OVCAR-8
SF-268 = test system: SF-268
SK-MEL-2 = test system: SK-MEL-2
SW-620 = test system: SW-620
UACC-62 = test system: UACC-62
RXF 393 = test system: RXF 393

SMILES	GI50 (A498)	GI50 (A549)	GI50 (HCT-116)	GI50 (HCT-15) [µM]	GI50 (HOP-62)	GI50 (Hs-578T)	GI50 (K562)	GI50 (KM12)	GI50 (M14)	GI50 (MCF7)	GI50 (MDA-N)	GI50 (NCI-H460)	GI50 (NCI/ADR-RES)	GI50 (OVCAR-8)	GI50 (SF-268)	GI50 (SK-MEL-2)	GI50 (SW-620)	GI50 (UACC-62)	GI50 (RXF 393)
Fc1ccc(C(OCCN2CCC3CCC(C2)N3CCCc2ccccc2)c2ccc(F)cc2)cc1 (stereo not given)	3.02 µM (inactive)	6.15 µM (inactive)	2.65 µM (inactive)	3.76	7.38 µM (inactive)	4.58 µM (inactive)	2.05 µM (inactive)	3.11 µM (inactive)	2.1 µM (inactive)	3.74 µM (inactive)	3.27 µM (inactive)	2.58 µM (inactive)	3.62 µM (inactive)	2.24 µM (inactive)	6.62 µM (inactive)	3.48 µM (inactive)	3.64 µM (inactive)	5.75 µM (inactive)	–
CC(C)(C)CC(N)=O	> 100 µM (inactive)	> 100 µM (inactive)	> 100 µM (inactive)	> 100	> 100 µM (inactive)	> 100 µM (inactive)	> 100 µM (inactive)	> 100 µM (inactive)	> 100 µM (inactive)	> 100 µM (inactive)	> 100 µM (inactive)	> 100 µM (inactive)	> 100 µM (inactive)	> 100 µM (inactive)	> 100 µM (inactive)	> 100 µM (inactive)	> 100 µM (inactive)	> 100 µM (inactive)	–
Cc1cn(C2CC(n3cc(Cn4ccc(=O)[nH]c4=O)nn3)C(CO)O2)c(=O)[nH]c1=O (stereo not given)	> 100 µM (inactive)	> 100 µM (inactive)	> 100 µM (inactive)	> 100	> 100 µM (inactive)	> 100 µM (inactive)	–	> 100 µM (inactive)	> 100 µM (inactive)	> 100 µM (inactive)	> 100 µM (inactive)	–	> 100 µM (inactive)	> 100 µM (inactive)	> 100 µM (inactive)	> 100 µM (inactive)	> 100 µM (inactive)	> 100 µM (inactive)	> 100 µM (inactive)
CC1=C(C)C(=O)C(C2=CC(=O)c3ccccc3C2=O)=C(C2=CC(=O)c3ccccc3C2=O)C1=O	23.4 µM (inactive)	19.4 µM (inactive)	3.6 µM (inactive)	0.646	12.4 µM (inactive)	3.62 µM (inactive)	–	10.4 µM (inactive)	8.49 µM (inactive)	1.88 µM (inactive)	0.82 µM (active)	10.1 µM (inactive)	1.68 µM (inactive)	3.64 µM (inactive)	8.15 µM (inactive)	5.9 µM (inactive)	2.79 µM (inactive)	7.19 µM (inactive)	2.52 µM (inactive)
Nc1cc2c3c(cccc3c1)C(=O)N(c1ccc(OCCN3CCCCC3)cc1)C2=O	16 µM (inactive)	13.9 µM (inactive)	11.3 µM (inactive)	12.7	15.8 µM (inactive)	27.7 µM (inactive)	12.1 µM (inactive)	20 µM (inactive)	15.5 µM (inactive)	19.1 µM (inactive)	18.5 µM (inactive)	–	19.2 µM (inactive)	16.1 µM (inactive)	19.1 µM (inactive)	17.2 µM (inactive)	20.6 µM (inactive)	19.1 µM (inactive)	16.7 µM (inactive)
CCOC(=O)C(C(=O)OCC)C(=S)NC1OC(COC(C)=O)C(OC(C)=O)C(OC(C)=O)C1OC(C)=O (stereo not given)	> 100 µM (inactive)	> 100 µM (inactive)	> 100 µM (inactive)	> 100	> 100 µM (inactive)	> 100 µM (inactive)	–	> 100 µM (inactive)	> 100 µM (inactive)	> 100 µM (inactive)	> 100 µM (inactive)	> 100 µM (inactive)	> 100 µM (inactive)	> 100 µM (inactive)	> 100 µM (inactive)	> 100 µM (inactive)	> 100 µM (inactive)	> 100 µM (inactive)	> 100 µM (inactive)
CCC(C)C(NC(=O)C(CCCC[N+](=N)N)NC(=O)C(CCCC[N+](=N)N)NC(=O)c1ccc(OC)cc1)C(=O)NC(CCCC[N+](=N)N)C(=O)N1CCCC1C(=O)NC(CCCCN)C(=O)NC(CC(C)C)C(N)=O (stereo not given)	> 100 µM (inactive)	> 100 µM (inactive)	> 100 µM (inactive)	> 100	> 100 µM (inactive)	> 100 µM (inactive)	> 100 µM (inactive)	> 100 µM (inactive)	> 100 µM (inactive)	> 100 µM (inactive)	> 100 µM (inactive)	> 100 µM (inactive)	> 100 µM (inactive)	> 100 µM (inactive)	> 100 µM (inactive)	–	> 100 µM (inactive)	> 100 µM (inactive)	> 100 µM (inactive)
O=c1[nH]nc(Cc2ccccc2)n1CCO	> 100 µM (inactive)	> 100 µM (inactive)	> 100 µM (inactive)	> 100	–	> 100 µM (inactive)	> 100 µM (inactive)	> 100 µM (inactive)	> 100 µM (inactive)	> 100 µM (inactive)	> 100 µM (inactive)	> 100 µM (inactive)	> 100 µM (inactive)	> 100 µM (inactive)	> 100 µM (inactive)	> 100 µM (inactive)	> 100 µM (inactive)	> 100 µM (inactive)	–
COc1ccccc1-n1nnc2c(N)nc(N)nc21	> 100 µM (inactive)	> 100 µM (inactive)	> 100 µM (inactive)	> 100	> 100 µM (inactive)	> 100 µM (inactive)	> 100 µM (inactive)	> 100 µM (inactive)	> 100 µM (inactive)	> 100 µM (inactive)	> 100 µM (inactive)	> 100 µM (inactive)	> 100 µM (inactive)	> 100 µM (inactive)	> 100 µM (inactive)	> 100 µM (inactive)	> 100 µM (inactive)	> 100 µM (inactive)	–
C/C(=C/CC[C@]1(CO)CC[C@]2(C)[C@H](CC[C@@H]3[C@@]4(C)CC[C@H](OC5OC(CO)C(O)C(O)C5OC5OC(CO)C(O)C(O)C5O)C(C)(C)[C@@H]4CC[C@]32C)[C@H]1O)CO (stereo not given in full)	> 100 µM (inactive)	> 100 µM (inactive)	> 100 µM (inactive)	> 100	> 100 µM (inactive)	> 100 µM (inactive)	> 100 µM (inactive)	> 100 µM (inactive)	> 100 µM (inactive)	> 100 µM (inactive)	> 100 µM (inactive)	> 100 µM (inactive)	> 100 µM (inactive)	> 100 µM (inactive)	> 100 µM (inactive)	–	> 100 µM (inactive)	> 100 µM (inactive)	> 100 µM (inactive)
Cc1ccc(SCC(CSCCO)OCn2cnc3c2N=C(N)NC32OCCO2)cc1 (stereo not given)	> 100 µM (inactive)	> 100 µM (inactive)	> 100 µM (inactive)	> 100	> 100 µM (inactive)	> 100 µM (inactive)	> 100 µM (inactive)	–	> 100 µM (inactive)	> 100 µM (inactive)	> 100 µM (inactive)	> 100 µM (inactive)	> 100 µM (inactive)	> 100 µM (inactive)	> 100 µM (inactive)	> 100 µM (inactive)	> 100 µM (inactive)	–	> 100 µM (inactive)
C=C1N(S(=O)(=O)c2ccc(C)cc2)C(=O)OCC12CCCC2	> 100 µM (inactive)	> 100 µM (inactive)	55.3 µM (inactive)	94	–	32.5 µM (inactive)	94.2 µM (inactive)	> 100 µM (inactive)	> 100 µM (inactive)	> 100 µM (inactive)	> 100 µM (inactive)	96.4 µM (inactive)	81.7 µM (inactive)	> 100 µM (inactive)	–	–	> 100 µM (inactive)	34.6 µM (inactive)	> 100 µM (inactive)
Cc1ccc2c(ccc3c[n+]4ccccc4c(C)c32)c1.[O-][Cl+3]([O-])([O-])[O-]	13.4 µM (inactive)	0.373 µM (active)	4.59 µM (inactive)	> 100	2.44 µM (inactive)	3.05 µM (inactive)	4.16 µM (inactive)	0.39 µM (active)	5.46 µM (inactive)	2.89 µM (inactive)	> 100 µM (inactive)	> 100 µM (inactive)	> 100 µM (inactive)	2.29 µM (inactive)	1.29 µM (inactive)	1.39 µM (inactive)	0.962 µM (active)	–	26.4 µM (inactive)
COc1ccc(NC(=S)Nc2c(C)n(C)n(-c3ccccc3)c2=O)cc1	> 100 µM (inactive)	> 100 µM (inactive)	> 100 µM (inactive)	> 100	> 100 µM (inactive)	> 100 µM (inactive)	> 100 µM (inactive)	> 100 µM (inactive)	> 100 µM (inactive)	> 100 µM (inactive)	> 100 µM (inactive)	> 100 µM (inactive)	> 100 µM (inactive)	> 100 µM (inactive)	> 100 µM (inactive)	–	> 100 µM (inactive)	> 100 µM (inactive)	> 100 µM (inactive)
S=c1c2cc(I)ccc2nc(S)n1Cc1ccccc1	3.33 µM (inactive)	3.68 µM (inactive)	3.38 µM (inactive)	3.78	2.87 µM (inactive)	7.16 µM (inactive)	3.54 µM (inactive)	3.42 µM (inactive)	3.9 µM (inactive)	5.42 µM (inactive)	3.83 µM (inactive)	3.28 µM (inactive)	3.37 µM (inactive)	5.57 µM (inactive)	6.43 µM (inactive)	3.14 µM (inactive)	3.72 µM (inactive)	–	2.17 µM (inactive)

Source: ChEMBL document CHEMBL1201862, “PubChem BioAssay data set” (2004)
